Measurements: US20060029649A1, “Stabilized antimicrobial agents” (priority 2004, published 2006)

Assay: Thermal stability of IPBC in lubricant mixtures, oven at 180° C., amount determined by HPLC
Format: physicochemical
Experimental: Except for example 2 wherein 100% IPBC was used, the antimicrobial agent was admixed with the lubricating agent at room temperature overnight in a roller mixer. Samples of the resulting mixtures were then placed in a conventional oven at 180° C. for the time specified below (5 minutes and 132 minutes). The amount of antimicrobial agent in the sample, initially and after heating, was determined by HPLC. All samples were contained in dark bottles and covered with aluminum foil during heating.
The samples were prepared and tested as described in Examples 1-5.

Compound: CCCCNC(=O)OCC#CI [Example 2, 3-iodo-2-propynyl butyl carbamate]
- % Biocide/ 5 min. (after 5 minutes in oven at 180° C.): 83%
- % Biocide/ 132 min. (after 132 minutes in oven at 180° C.): 0%
- % Initial Biocide (before heating, by weight): 100%
